According to patent US11020399B2, “Intermediates useful in the synthesis of compounds as modulators of protein kinases” (Rhizen Pharmaceuticals SA, priority 2011, dated 2021):

Assays:
PI3kδ = PI3kδ (Homo sapiens, UniProt O00329); assay: Fluorescent (HTRF) determination of PI3 kinase enzyme activity, PI3Kδ; assay type: biochemical; settings: for inhibition at 0.3 µM: 300 nM (Examples 1-59); for inhibition at 0.1 µM: 100 nM (Examples 60-137)
Method in brief: (§1)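 HTRF detection of PIP3 from PIP2 (1.38 μM in reaction mix) with 10 mM MgCl2, 5 mM DTT; compound preincubated with enzyme 10 min, then ATP (400 μM addition) 30 min at room temperature. Percent inhibition versus blank and enzyme controls at 1 μM (α, β) and 0.3 or 0.1 μM (γ, δ); IC50 also fitted.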

PI3kα = PI3kα (Homo sapiens, UniProt P42336); assay: Fluorescent (HTRF) determination of PI3 kinase enzyme activity, PI3Kα; assay type: biochemical; settings: 1 uM
Chain of PI3kα (P42336 whole entry): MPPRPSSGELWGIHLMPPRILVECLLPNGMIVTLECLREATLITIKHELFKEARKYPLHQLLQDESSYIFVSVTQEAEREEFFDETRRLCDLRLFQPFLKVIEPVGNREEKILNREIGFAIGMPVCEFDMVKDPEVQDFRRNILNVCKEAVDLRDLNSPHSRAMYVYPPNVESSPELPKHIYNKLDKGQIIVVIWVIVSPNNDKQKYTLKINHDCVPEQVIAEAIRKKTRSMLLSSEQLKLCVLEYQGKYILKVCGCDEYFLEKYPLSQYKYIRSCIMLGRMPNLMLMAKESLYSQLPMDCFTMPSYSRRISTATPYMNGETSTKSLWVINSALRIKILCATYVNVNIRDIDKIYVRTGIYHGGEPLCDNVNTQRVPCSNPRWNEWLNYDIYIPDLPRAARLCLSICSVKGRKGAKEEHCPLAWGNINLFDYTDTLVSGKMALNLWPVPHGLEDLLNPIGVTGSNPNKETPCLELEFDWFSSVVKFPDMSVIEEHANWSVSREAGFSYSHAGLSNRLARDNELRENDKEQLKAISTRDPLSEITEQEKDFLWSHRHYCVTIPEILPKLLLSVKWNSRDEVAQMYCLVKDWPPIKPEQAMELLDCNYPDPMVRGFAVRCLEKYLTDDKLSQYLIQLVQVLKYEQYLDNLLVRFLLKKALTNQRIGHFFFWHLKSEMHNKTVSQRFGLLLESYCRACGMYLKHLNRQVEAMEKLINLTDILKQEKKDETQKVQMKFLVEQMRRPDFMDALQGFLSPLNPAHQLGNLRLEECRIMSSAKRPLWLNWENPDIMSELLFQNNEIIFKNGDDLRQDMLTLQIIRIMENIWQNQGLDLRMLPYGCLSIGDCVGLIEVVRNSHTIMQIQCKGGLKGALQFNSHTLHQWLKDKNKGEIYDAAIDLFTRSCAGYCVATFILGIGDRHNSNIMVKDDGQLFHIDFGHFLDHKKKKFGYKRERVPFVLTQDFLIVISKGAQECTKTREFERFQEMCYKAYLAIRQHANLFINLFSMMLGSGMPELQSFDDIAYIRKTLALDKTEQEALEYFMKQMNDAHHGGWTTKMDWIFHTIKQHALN
Chain of PI3kα (P27986 whole entry partner): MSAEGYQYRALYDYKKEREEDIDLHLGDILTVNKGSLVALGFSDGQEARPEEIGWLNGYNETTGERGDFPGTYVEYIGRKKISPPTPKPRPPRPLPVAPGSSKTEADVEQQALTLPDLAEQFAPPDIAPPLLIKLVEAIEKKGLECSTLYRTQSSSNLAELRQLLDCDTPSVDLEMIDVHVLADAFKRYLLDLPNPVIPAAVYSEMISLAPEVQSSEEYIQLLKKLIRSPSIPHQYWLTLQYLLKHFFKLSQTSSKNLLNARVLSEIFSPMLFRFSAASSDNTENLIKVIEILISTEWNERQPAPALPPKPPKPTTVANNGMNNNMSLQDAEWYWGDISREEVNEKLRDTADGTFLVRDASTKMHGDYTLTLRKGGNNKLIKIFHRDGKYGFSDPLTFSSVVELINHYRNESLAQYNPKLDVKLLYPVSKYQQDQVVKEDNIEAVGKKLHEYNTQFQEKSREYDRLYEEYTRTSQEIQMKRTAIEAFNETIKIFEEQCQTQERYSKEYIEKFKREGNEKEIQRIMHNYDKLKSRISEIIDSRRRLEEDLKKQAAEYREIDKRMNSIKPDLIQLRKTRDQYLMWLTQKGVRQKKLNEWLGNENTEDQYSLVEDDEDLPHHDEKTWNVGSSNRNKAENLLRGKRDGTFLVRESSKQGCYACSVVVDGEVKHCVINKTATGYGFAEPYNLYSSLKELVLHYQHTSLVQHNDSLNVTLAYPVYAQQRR
Method in brief: as §1

PI3kβ = PI3kβ (Homo sapiens, UniProt P42338); assay: Fluorescent (HTRF) determination of PI3 kinase enzyme activity, PI3Kβ; assay type: biochemical; settings: 1 uM
Chain of PI3kβ (P42338 whole entry): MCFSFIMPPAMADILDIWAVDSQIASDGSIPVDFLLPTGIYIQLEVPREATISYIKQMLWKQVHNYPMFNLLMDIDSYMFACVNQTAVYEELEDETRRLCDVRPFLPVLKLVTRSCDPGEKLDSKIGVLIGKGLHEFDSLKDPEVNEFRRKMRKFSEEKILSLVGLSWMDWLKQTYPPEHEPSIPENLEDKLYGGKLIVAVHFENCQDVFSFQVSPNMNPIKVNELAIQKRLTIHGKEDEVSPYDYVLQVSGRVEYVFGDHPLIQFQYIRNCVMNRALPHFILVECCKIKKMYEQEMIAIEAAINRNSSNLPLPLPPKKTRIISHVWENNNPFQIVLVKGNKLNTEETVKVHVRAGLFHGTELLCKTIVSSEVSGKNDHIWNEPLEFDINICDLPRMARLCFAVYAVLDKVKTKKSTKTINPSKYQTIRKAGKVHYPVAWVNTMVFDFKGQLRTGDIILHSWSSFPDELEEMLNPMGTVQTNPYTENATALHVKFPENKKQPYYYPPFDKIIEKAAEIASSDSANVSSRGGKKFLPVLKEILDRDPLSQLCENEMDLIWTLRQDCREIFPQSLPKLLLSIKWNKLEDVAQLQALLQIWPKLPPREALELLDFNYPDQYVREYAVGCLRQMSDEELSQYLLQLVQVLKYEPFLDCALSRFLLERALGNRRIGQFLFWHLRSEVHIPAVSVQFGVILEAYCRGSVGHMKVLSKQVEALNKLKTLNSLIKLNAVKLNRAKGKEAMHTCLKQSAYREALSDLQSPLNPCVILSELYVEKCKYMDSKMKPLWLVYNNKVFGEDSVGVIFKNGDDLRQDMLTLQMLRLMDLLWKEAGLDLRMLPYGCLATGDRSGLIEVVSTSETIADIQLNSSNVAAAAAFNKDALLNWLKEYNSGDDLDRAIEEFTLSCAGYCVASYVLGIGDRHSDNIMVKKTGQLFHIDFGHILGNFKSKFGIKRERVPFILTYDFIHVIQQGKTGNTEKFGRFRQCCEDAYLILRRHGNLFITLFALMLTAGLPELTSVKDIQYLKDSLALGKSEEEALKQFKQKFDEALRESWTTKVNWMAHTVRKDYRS
Chain of PI3kβ (P27986 whole entry partner): as the sequence (P27986 whole entry partner) above
Method in brief: as §1

PI3kγ = PI3kγ (Homo sapiens, UniProt P48736); assay: Fluorescent (HTRF) determination of PI3 kinase enzyme activity, PI3Kγ; assay type: biochemical; settings: for inhibition at 0.3 µM: 300 nM (Examples 1-59); for inhibition at 0.1 µM: 100 nM (Examples 60-137)
Chain of PI3kγ (P48736 whole entry): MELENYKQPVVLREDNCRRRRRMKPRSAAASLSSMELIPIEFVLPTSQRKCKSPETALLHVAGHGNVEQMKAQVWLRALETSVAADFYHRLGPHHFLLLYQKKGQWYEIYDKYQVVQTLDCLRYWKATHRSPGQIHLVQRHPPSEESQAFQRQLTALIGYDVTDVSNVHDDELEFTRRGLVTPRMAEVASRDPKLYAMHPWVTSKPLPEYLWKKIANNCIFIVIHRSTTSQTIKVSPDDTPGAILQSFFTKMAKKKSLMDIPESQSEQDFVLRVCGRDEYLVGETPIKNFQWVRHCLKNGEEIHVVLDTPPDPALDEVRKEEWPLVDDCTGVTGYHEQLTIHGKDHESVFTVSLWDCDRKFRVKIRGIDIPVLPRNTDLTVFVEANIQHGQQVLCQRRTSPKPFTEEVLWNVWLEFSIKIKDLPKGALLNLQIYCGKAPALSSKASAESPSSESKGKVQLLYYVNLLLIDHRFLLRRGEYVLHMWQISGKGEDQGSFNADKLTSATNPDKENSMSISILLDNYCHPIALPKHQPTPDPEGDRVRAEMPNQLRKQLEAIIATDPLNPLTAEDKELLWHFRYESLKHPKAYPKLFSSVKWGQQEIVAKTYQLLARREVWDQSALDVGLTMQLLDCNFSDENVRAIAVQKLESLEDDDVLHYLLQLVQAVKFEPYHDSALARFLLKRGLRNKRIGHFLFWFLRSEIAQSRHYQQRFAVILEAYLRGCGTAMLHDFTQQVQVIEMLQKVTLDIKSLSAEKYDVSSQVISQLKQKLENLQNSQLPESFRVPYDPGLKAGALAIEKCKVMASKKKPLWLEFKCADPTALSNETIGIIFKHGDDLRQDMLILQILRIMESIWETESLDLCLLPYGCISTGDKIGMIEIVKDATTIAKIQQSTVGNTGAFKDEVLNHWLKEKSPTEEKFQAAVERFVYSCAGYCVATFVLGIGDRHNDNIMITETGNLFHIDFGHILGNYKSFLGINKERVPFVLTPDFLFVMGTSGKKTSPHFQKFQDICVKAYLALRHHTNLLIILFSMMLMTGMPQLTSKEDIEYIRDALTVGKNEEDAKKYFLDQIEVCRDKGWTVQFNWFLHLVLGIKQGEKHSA
Method in brief: as §1

Chain of PI3kδ (O00329 whole entry): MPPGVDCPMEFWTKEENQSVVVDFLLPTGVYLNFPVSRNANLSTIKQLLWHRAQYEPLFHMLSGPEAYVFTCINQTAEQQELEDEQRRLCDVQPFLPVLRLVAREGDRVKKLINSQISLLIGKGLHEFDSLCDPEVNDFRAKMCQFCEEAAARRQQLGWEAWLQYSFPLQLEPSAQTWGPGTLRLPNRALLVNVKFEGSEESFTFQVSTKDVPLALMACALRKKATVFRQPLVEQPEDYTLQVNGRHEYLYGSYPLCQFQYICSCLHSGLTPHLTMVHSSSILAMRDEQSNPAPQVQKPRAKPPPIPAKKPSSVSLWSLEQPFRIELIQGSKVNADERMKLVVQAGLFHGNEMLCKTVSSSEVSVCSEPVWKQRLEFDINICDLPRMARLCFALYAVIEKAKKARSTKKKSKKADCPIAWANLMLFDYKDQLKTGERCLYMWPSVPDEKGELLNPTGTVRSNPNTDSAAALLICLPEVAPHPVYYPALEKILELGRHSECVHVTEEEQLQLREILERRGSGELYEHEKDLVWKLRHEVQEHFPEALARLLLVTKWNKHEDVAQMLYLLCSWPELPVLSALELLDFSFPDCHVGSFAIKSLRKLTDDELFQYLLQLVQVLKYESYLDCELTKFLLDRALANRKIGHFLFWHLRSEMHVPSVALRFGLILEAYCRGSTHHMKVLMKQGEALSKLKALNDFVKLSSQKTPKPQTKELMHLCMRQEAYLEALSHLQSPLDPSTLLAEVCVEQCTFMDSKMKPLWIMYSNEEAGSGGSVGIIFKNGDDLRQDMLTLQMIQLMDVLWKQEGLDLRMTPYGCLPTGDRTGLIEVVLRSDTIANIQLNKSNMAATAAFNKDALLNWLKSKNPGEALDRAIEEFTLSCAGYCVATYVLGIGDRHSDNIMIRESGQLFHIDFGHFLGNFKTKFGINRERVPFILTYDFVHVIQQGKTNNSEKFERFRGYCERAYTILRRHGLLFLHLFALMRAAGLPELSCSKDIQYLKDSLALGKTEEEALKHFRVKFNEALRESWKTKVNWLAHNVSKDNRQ
Chain of PI3kδ (P27986 whole entry partner): as the sequence (P27986 whole entry partner) above

Row | Structure (SMILES) | inhibition at 0.3 µM (PI3kδ) [%] | melting point [°C] | inhibition at 1 µM (PI3kα) [%] | inhibition at 1 µM (PI3kβ) [%] | inhibition at 0.3 µM (PI3kγ) [%] | inhibition at 0.1 µM (PI3kδ) [%] | inhibition at 0.1 µM (PI3kγ) [%]
1 | CNS(=O)(=O)c1ccc(-c2nn(C(C)c3oc4cccc(F)c4c(=O)c3-c3cccc(F)c3)c3ncnc(N)c23)cc1 (stereo not shown) [Example 52, 4-(4-amino-1-(1-(5-fluoro-3-(3-fluorophenyl)-4-oxo-4H-chromen-2-yl)ethyl)-1H-pyrazolo[3,4-d]pyrimidin-3-yl)-N-methylbenzenesulfonamide] | 50 to 75 | 175 to 178 | 25 to 50 | 50 to 75 | 50 to 75 | – | –
2 | CNc1nnc(-c2ccc(-c3nn(C(C)c4oc5cccc(F)c5c(=O)c4-c4cccc(F)c4)c4ncnc(N)c34)cc2)s1 (stereo not shown) [Example 54, 2-(1-(4-amino-3-(4-(5-(methylamino)-1,3,4-thiadiazol-2-yl)phenyl)-1H-pyrazolo[3,4-d]pyrimidin-1-yl)ethyl)-5-fluoro-3-(3-fluorophenyl)-4H-chromen-4-one] | 50 to 75 | 199 to 201 | 25 to 50 | 25 to 50 | 50 to 75 | – | –
3 | CC(C)NS(=O)(=O)c1ccc(-c2nn(C(C)c3oc4cccc(F)c4c(=O)c3-c3cccc(F)c3)c3ncnc(N)c23)cc1 (stereo not shown) [Example 56, 4-(4-amino-1-(1-(5-fluoro-3-(3-fluorophenyl)-4-oxo-4H-chromen-2-yl)ethyl)-1H-pyrazolo[3,4-d]pyrimidin-3-yl)-N-isopropylbenzenesulfonamide] | 0 to 25 | 211 to 214 | 0 to 25 | 50 to 75 | 50 to 75 | – | –
4 | CC(C)Oc1ncc(-c2nn(C(C)c3oc4cccc(F)c4c(=O)c3-c3cccc(F)c3)c3ncnc(N)c23)cn1 (stereo not shown) [Example 58, 2-(1-(4-amino-3-(2-isopropoxypyrimidin-5-yl)-1H-pyrazolo[3,4-d]pyrimidin-1-yl)ethyl)-5-fluoro-3-(3-fluorophenyl)-4H-chromen-4-one] | 50 to 75 | 230 to 232 | 0 to 25 | 50 to 75 | 25 to 50 | – | –
5 | CC(c1oc2cccc(F)c2c(=O)c1-c1cccc(F)c1)n1nc(-c2ccc(S(N)(=O)=O)cc2)c2c(N)ncnc21 (stereo not shown) [Example 60, 4-(4-amino-1-(1-(5-fluoro-3-(3-fluorophenyl)-4-oxo-4H-chromen-2-yl)ethyl)-1H-pyrazolo[3,4-d]pyrimidin-3-yl)benzenesulfonamide] | – | 232 to 235 | 0 to 25 | 25 to 50 | – | 25 to 50 | 25 to 50
6 | COC(=O)c1cc(-c2nn(C(C)c3oc4cccc(F)c4c(=O)c3-c3cccc(F)c3)c3ncnc(N)c23)cs1 (stereo not shown) [Example 61, methyl 4-(4-amino-1-(1-(5-fluoro-3-(3-fluorophenyl)-4-oxo-4H-chromen-2-yl)ethyl)-1H-pyrazolo[3,4-d]pyrimidin-3-yl)thiophene-2-carboxylate] | – | 227 to 230 | 25 to 50 | 25 to 50 | – | 25 to 50 | 50 to 75
7 | Cc1ccc(-c2nn(C(C)c3oc4cccc(F)c4c(=O)c3-c3cccc(F)c3)c3ncnc(N)c23)s1 (stereo not shown) [Example 62, 2-(1-(4-amino-3-(5-methylthiophen-2-yl)-1H-pyrazolo[3,4-d]pyrimidin-1-yl)ethyl)-5-fluoro-3-(3-fluorophenyl)-4H-chromen-4-one] | – | 223 to 226 | 0 to 25 | 50 to 75 | – | 50 to 75 | 25 to 50
8 | CC(c1oc2cccc(F)c2c(=O)c1-c1cccc(F)c1)n1nc(-c2cnc3[nH]ccc3c2)c2c(N)ncnc21 (stereo not shown) [Example 63, 2-(1-(4-amino-3-(1H-pyrrolo[2,3-b]pyridin-5-yl)-1H-pyrazolo[3,4-d]pyrimidin-1-yl)ethyl)-5-fluoro-3-(3-fluorophenyl)-4H-chromen-4-one] | – | 303 to 306 | 25 to 50 | 0 to 25 | – | 25 to 50 | 25 to 50
